Earlier results on one compound are cited in US20230212091A1, “Compositions for Increasing Nitrogen Sources Life Span in Plant Growth Mediums and Methods of Making” (Soilgenic Technologies, LLC, priority 2017, published 2023).

The conditions of the data set: at 20° C.

`N#CN=C(N)N` [DCD, dicyandiamide]: the solubility in water result was “approximately 32 grams/liter”.
